The values below come from patent publication US12336981B2, “Compounds and compositions for the inhibition of NAMPT” (Valo Health, Inc., priority 2010, dated 2025).

Like-named read-outs stand apart in the source and are kept apart here. A value given as a limit tells only on which side of the number the result lay.

As a reminder, the IC50 is the point on the concentration scale where inhibition reaches its midpoint.

One test addresses T1, NAMPT (Homo sapiens, UniProt P43490).
T1 construct: His tag; host or cells: E. coli
Briefly: Biochemical inhibition assay: NAMPT enzymatic reaction, NMN quantified by mass spectrometry. The conditions noted are these: read-out: Biochem IC50. A digest of the protocol:
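Inhibition of E. coli-expressed His-tagged human NAMPT, measured as NMN formation by mass spectrometry after a 30 min room-temperature reaction containing 1 μM NAM, 100 μM PRPP and 2.5 mM ATP.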

For a further test, the system named is A2780 cells. Briefly: In-vitro cell proliferation assay (SRB), A2780 cells. The test is classed as cell-based. The conditions noted are these: Homo sapiens, A2780, 72 h, A2780 cells, 72 hours, read-out: A2780 IC50. A digest of the protocol: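 Cells were plated overnight at 37° C., 5% CO2, then exposed to serially diluted compounds (0.1% DMSO final) for 72 hours. Viable cells were measured by sulforhodamine B staining after TCA fixation, read at 570 nm; media-only background was subtracted before % inhibition was calculated.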

T1 sequence (P43490 whole entry): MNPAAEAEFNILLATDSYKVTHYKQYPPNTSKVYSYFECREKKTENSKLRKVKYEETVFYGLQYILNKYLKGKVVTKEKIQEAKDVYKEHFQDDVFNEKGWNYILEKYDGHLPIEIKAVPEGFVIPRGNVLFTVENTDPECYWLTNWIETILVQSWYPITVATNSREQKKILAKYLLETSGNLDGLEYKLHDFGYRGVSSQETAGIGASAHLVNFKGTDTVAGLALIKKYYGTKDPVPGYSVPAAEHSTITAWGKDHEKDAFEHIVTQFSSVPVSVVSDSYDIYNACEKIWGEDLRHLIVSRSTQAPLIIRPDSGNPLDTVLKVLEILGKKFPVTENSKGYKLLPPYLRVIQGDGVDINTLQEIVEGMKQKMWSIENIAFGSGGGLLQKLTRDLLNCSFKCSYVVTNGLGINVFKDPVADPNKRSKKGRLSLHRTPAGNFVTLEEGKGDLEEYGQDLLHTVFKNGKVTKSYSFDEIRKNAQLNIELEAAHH

Turning to `O=C(NCc1ccc(S(=O)(=O)c2ccc(C(F)(F)F)cc2)cc1)c1cnc2[nH]ncc2c1` [N-[(4-{[4-(trifluoromethyl)benzene]sulfonyl}phenyl)methyl]-1H-pyrazolo[3,4-b]pyridine-5-carboxamide], the IC50 was 19.9 nM at NAMPT (NAMPT enzymatic assay) and 19.4 nM in the test on A2780 cells (SRB).

As to `O=C(NCc1ccc(S(=O)(=O)c2ccc(C(F)(F)F)cc2)cc1)c1cc2cnccc2[nH]1` [N-[(4-{[4-(trifluoromethyl)benzene]sulfonyl}phenyl)methyl]-1H-pyrrolo[3,2-c]pyridine-2-carboxamide], the IC50 on NAMPT (NAMPT enzymatic reaction) came to 24 nM; with A2780 cells (SRB assay) it was 26 nM.

For the compound `O=C(NCc1ccc(S(=O)(=O)Nc2ccc(Cl)cc2OC(F)(F)F)cc1)c1cc2cnccc2[nH]1` [N-[(4-{[4-chloro-2-(trifluoromethoxy)phenyl]sulfamoyl}phenyl)methyl]-1H-pyrrolo[3,2-c]pyridine-2-carboxamide], the IC50 at NAMPT (NAMPT enzymatic reaction) and in the test on A2780 cells (SRB assay) was 2 nM in each case.

Consider `O=C(NCc1ccc(S(=O)(=O)c2ccc(Cl)cc2C(F)(F)F)cc1)c1cnc2[nH]ncc2c1` [N-[(4-{[4-chloro-2-(trifluoromethyl)benzene]sulfonyl}phenyl)methyl]-1H-pyrazolo[3,4-b]pyridine-5-carboxamide], for which the 50% inhibitory concentration (IC50) came out at 147 nM at NAMPT (NAMPT enzymatic assay) and 78.3 nM with A2780 cells (SRB).

As to `O=C(NCc1ccc(S(=O)(=O)c2ccc(Cl)c(C(F)(F)F)c2)cc1)c1cc2cnccc2[nH]1` [N-[(4-{[4-chloro-3-(trifluoromethyl)benzene]sulfonyl}phenyl)methyl]-1H-pyrrolo[3,2-c]pyridine-2-carboxamide], the half-inhibitory concentration (IC50) turned out to be 8 nM on NAMPT (NAMPT enzymatic reaction) and 5 nM in the test on A2780 cells (SRB assay).

For `O=C(NCc1ccc(S(=O)(=O)c2ccc(Cl)c(C(F)(F)F)c2)cc1)c1ccc2nccn2c1` [N-[(4-{[4-chloro-3-(trifluoromethyl)benzene]sulfonyl}phenyl)methyl]imidazo[1,2-a]pyridine-6-carboxamide], the IC50 on NAMPT (NAMPT enzymatic assay) was found to be 9.84 nM; in the test on A2780 cells (SRB) it was 3.57 nM.

Regarding `O=C(NCc1ccc(S(=O)(=O)c2ccc(Cl)c(C(F)(F)F)c2)cc1)c1cc2ccncc2s1` [N-[(4-{[4-chloro-3-(trifluoromethyl)benzene]sulfonyl}phenyl)methyl]thieno[2,3-c]pyridine-2-carboxamide], the IC50 at NAMPT (NAMPT enzymatic reaction) came to 10 nM; with A2780 cells (SRB assay) it was 3.4 nM.

For the compound `CC(C)Oc1cc(F)ccc1S(=O)(=O)c1ccc(CNC(=O)c2cnc3nccn3c2)cc1` [N-[(4-{[4-fluoro-2-(propan-2-yloxy)benzene]sulfonyl}phenyl)methyl]imidazo[1,2-a]pyrimidine-6-carboxamide], the figures for the IC50 on NAMPT (NAMPT enzymatic assay) and with A2780 cells (SRB) were 3.5 nM and 15 nM, respectively.

With `O=C(NCc1ccc(S(=O)(=O)c2ccc(F)cc2C(F)(F)F)cc1)c1cnc2[nH]ncc2c1` [N-[(4-{[4-fluoro-2-(trifluoromethyl)benzene]sulfonyl}phenyl)methyl]-1H-pyrazolo[3,4-b]pyridine-5-carboxamide], the half-inhibitory concentration (IC50) at NAMPT (NAMPT enzymatic assay) was determined as 112 nM; in the test with A2780 cells (SRB) it was 109 nM.

As to `O=C(NCc1ccc(S(=O)(=O)c2ccc(F)c(C(F)(F)F)c2)cc1)c1cnc2[nH]ncc2c1` [N-[(4-{[4-fluoro-3-(trifluoromethyl)benzene]sulfonyl}phenyl)methyl]-1H-pyrazolo[3,4-b]pyridine-5-carboxamide], the figures for the IC50 on NAMPT (NAMPT enzymatic assay) and in the test on A2780 cells (SRB) were 39.4 nM and 13.8 nM, respectively.

Consider `COc1ccc(S(=O)(=O)c2ccc(CNC(=O)c3cnc4[nH]ncc4c3)cc2)c(C(F)(F)F)c1` [N-[(4-{[4-methoxy-2-(trifluoromethyl)benzene]sulfonyl}phenyl)methyl]-1H-pyrazolo[3,4-b]pyridine-5-carboxamide], for which the concentration for half-maximal inhibition (IC50) on NAMPT (NAMPT enzymatic assay) is 86.8 nM; with A2780 cells (SRB) it was 62.8 nM.

Regarding `CC(C)Oc1ccc(Cl)cc1S(=O)(=O)c1ccc(CNC(=O)c2cnc3[nH]ncc3c2)cc1` [N-[(4-{[5-chloro-2-(propan-2-yloxy)benzene]sulfonyl}phenyl)methyl]-1H-pyrazolo[3,4-b]pyridine-5-carboxamide], the IC50 at NAMPT (NAMPT enzymatic assay) was found to be 67.8 nM; with A2780 cells (SRB), 27.1 nM.

As to `CC(C)Oc1ccc(Cl)cc1S(=O)(=O)c1ccc(CNC(=O)c2cnc3nccn3c2)cc1` [N-[(4-{[5-chloro-2-(propan-2-yloxy)benzene]sulfonyl}phenyl)methyl]imidazo[1,2-a]pyrimidine-6-carboxamide], the half-maximal inhibitory concentration (IC50) amounted to 4.7 nM on NAMPT (NAMPT enzymatic assay) and 14.6 nM with A2780 cells (SRB).

Turning to `O=C(NCc1ccc(S(=O)(=O)c2cc(F)ccc2CO)cc1)c1cnc2[nH]ncc2c1` [N-[(4-{[5-fluoro-2-(hydroxymethyl)benzene]sulfonyl}phenyl)methyl]-1H-pyrazolo[3,4-b]pyridine-5-carboxamide], the concentration for half-maximal inhibition (IC50) is 109 nM at NAMPT (NAMPT enzymatic assay) and 100 to 1000 nM in the test on A2780 cells (SRB).

For the compound `O=C(NCc1ccc(S(=O)(=O)c2cc(F)ccc2CO)cc1)c1cc2ccncc2o1` [N-[(4-{[5-fluoro-2-(hydroxymethyl)benzene]sulfonyl}phenyl)methyl]furo[2,3-c]pyridine-2-carboxamide], the concentration for half-maximal inhibition (IC50) at NAMPT (NAMPT enzymatic assay) came out at 22.9 nM; in the test on A2780 cells (SRB) it was 67 nM.

Regarding `CC(NC(=O)c1cc2cnccc2[nH]1)c1ccc(S(=O)(=O)N2CCCCC2)cc1` (stereo not drawn) [N-{1-[4-(piperidine-1-sulfonyl)phenyl]ethyl}-1H-pyrrolo[3,2-c]pyridine-2-carboxamide], the IC50 at NAMPT (NAMPT enzymatic reaction) was 20 nM; with A2780 cells (SRB assay) it was 7 nM.

For `O=C(NCCc1ccc(S(=O)(=O)c2ccccc2)cc1)c1cc2cnccc2[nH]1` [N-{2-[4-(benzenesulfonyl)phenyl]ethyl}-1H-pyrrolo[3,2-c]pyridine-2-carboxamide], the half-inhibitory concentration (IC50) on NAMPT (NAMPT enzymatic reaction) is 410 nM; with A2780 cells (SRB assay), 9100 nM.

On to `O=C(NCC1CCN(S(=O)(=O)c2ccccc2)CC1)c1cc2cnccc2[nH]1` [N-{[1-(benzenesulfonyl)piperidin-4-yl]methyl}-1H-pyrrolo[3,2-c]pyridine-2-carboxamide], for which the half-inhibitory concentration (IC50) was 15 nM at NAMPT (NAMPT enzymatic reaction) and 9 nM in the test with A2780 cells (SRB assay).

For the compound `O=C(NCc1cccc(S(=O)(=O)c2ccccc2)c1)c1cc2cnccc2[nH]1` [N-{[3-(benzenesulfonyl)phenyl]methyl}-1H-pyrrolo[3,2-c]pyridine-2-carboxamide], the IC50 on NAMPT (NAMPT enzymatic reaction) and with A2780 cells (SRB assay) was over 30000 nM in each case.

For the compound `O=C(NCc1ccc(S(=O)(=O)c2nccs2)cc1)c1cc2ccncc2o1` [N-{[4-(1,3-thiazole-2-sulfonyl)phenyl]methyl}furo[2,3-c]pyridine-2-carboxamide], the IC50 is 19.8 nM on NAMPT (NAMPT enzymatic assay) and 78.6 nM in the test on A2780 cells (SRB).

For the compound `O=C(NCc1ccc(S(=O)(=O)c2nccs2)cc1)c1ccc2nccn2c1` [N-{[4-(1,3-thiazole-2-sulfonyl)phenyl]methyl}imidazo[1,2-a]pyridine-6-carboxamide], the values for the IC50 at NAMPT (NAMPT enzymatic assay) and in the test on A2780 cells (SRB) were 21 nM and 99.4 nM, respectively.

Take `O=C(NCc1ccc(S(=O)(=O)c2nccs2)cc1)c1cc2ccncc2s1` [N-{[4-(1,3-thiazole-2-sulfonyl)phenyl]methyl}thieno[2,3-c]pyridine-2-carboxamide]: the IC50 on NAMPT (NAMPT enzymatic assay) came to 14.4 nM; in the test on A2780 cells (SRB), 75.1 nM.

For `Cc1cn(C)c(S(=O)(=O)c2ccc(CNC(=O)c3cc4ccncc4o3)cc2)n1` [N-{[4-(1,4-dimethyl-1H-imidazole-2-sulfonyl)phenyl]methyl}furo[2,3-c]pyridine-2-carboxamide], the half-maximal inhibitory concentration (IC50) was 60.7 nM at NAMPT (NAMPT enzymatic assay) and 100 to 1000 nM in the test with A2780 cells (SRB).

`Cc1cn(C)c(S(=O)(=O)c2ccc(CNC(=O)c3ccc4nccn4c3)cc2)n1` [N-{[4-(1,4-dimethyl-1H-imidazole-2-sulfonyl)phenyl]methyl}imidazo[1,2-a]pyridine-6-carboxamide]: the IC50 on NAMPT (NAMPT enzymatic assay) was 100 to 1000 nM; in the test on A2780 cells (SRB) it was 95.4 nM.
